Measured values as given in US20050054620A1, “Paricalcitol as a chemotherapeutic agent” (priority 2003, published 2005).
Entries after “also recorded” stand apart in the source; their conditions may differ.

How the values were obtained:
HL-60 cells [1] = assay: CD14 expression by flow cytometry; format: cell-based, human; conditions: for cell surface CD14 expression: paricalcitol 0.01 μM, arsenic trioxide 0.8 μM, 3 days
Procedure: In order to measure cell surface CD14 antigen on HL-60 cells, promyelocytic leukemia cell line, HL-60, was treated with either 1,25(OH)2D3 or paricalcitol (10^−7M) for 4 days and examined for CD14 expression by flow cytometry using CD14 antibody (DAKO, Carpinteria, Calif.), as described previously (Hisatake et al., supra, 2001). Murine IgG1 antibody (DAKO) was used as a control.
Measurement of cell surface CD14 antigen on HL-60 cells by flow cytometry using CD14 antibody (DAKO, Carpinteria, Calif.), was determined as described previously (Hisatake et al. Blood 97:2427-2433 (2001)). Murine IgG1 antibody (DAKO) was used as a control.

NCI-H929 cells [2] = assay: Cell cycle analysis by flow cytometry; format: cell-based, human; conditions: for G0/G1 arrest / accumulation / sub-G1 population: 0.01 μM each, 3 days
Procedure: For cell cycle analysis, cells were exposed to 10^−7M 1,25(OH)2D3, 10^−7M paricalcitol or vehicle control for either 3 or 4 days. Total cells, both in suspension and adherent, were collected, washed, suspended in cold PBS. Then cells were fixed in 75% chilled methanol and stained with propidium iodine. Cell cycle status was analyzed on a Becton Dickinson Flow Cytometer.
HCI-H929 cells were cultured with either paricalcitol (10^−7M) or 1,25(OH)2D3 (10^−7M) for 72 hrs, harvested and stained with propidium iodine (PI). Control cells were treated with vehicle alone.

NCI-H929 cells [3] = assay: TUNEL assay of apoptosis; format: cell-based, human; conditions: for apoptotic cells by TUNEL assay: 0.01 μM each, 3 days
Procedure: In FIG. […] Results represent the mean±SD of three independent experiments. A TUNEL assay was performed for immunohistochemical detection and quantification of programmed cell death at the single cell level, based on labeling of DNA strand breaks using the In Situ Cell Death Detection, POD (Roche, Indianapolis, Ind.). Early apoptosis was also detected by measuring annexin V protein in the cell membrane using Annexin V-FITC Kit (CLONTECH, Palo Alto, Calif.) followed by flow cytometric analysis.

[4] = test system: HL-60 myeloid leukemia cells; assay: MTT assay; format: cell-based, human; conditions: 4 days exposure
[5] = test system: NB-4 myeloid leukemia cells; assay: MTT assay; format: cell-based, human; conditions: 4 days exposure
NB-4 cells [6] = assay: CD14 expression by flow cytometry; format: cell-based, human; conditions: paricalcitol 0.1 μM, arsenic trioxide 0.6 μM, 3 days
HL-60 cells [7] = assay: NBT reduction (monocytic differentiation); format: cell-based, human; conditions: paricalcitol 0.01 μM, arsenic trioxide 0.8 μM, 3 days
NB-4 cells [8] = assay: Cell cycle analysis by flow cytometry (sub-G1); format: cell-based, human; conditions: paricalcitol 0.1 μM and/or arsenic trioxide 0.6 μM, 4 days, control 4%
Procedure: Cell cycle analysis was performed as follows: after treatment of 5×10^4 of cells with a selected compound, cells were collected, washed and suspended in cold PBS. Cells were fixed in chilled 75% methanol and stained with propidium iodine. Cell cycle status was analyzed on a Becton Dickinson Flow Cytometer used standart protocols.

wild type U937 cells = assay: CD14 expression by flow cytometry; format: cell-based, human; conditions: paricalcitol 0.01 μM, arsenic trioxide 0.4 μM
Source text: To examine the association between the presence of the fusion protein and the effect of the combination treatment, an engineered U937 monocytic leukemia cell line (PR9) that has stable integration of the PML-RARa cDNA under the control of the Zn^2+-inducible murine metallothionein 1 promoter was used. Also used were U937 cells transfected with the MT vector (B41) as a control.

24-hydroxylase [9] = molecular target: T1, 24-hydroxylase (Homo sapiens, UniProt Q07973); assay: 24-hydroxylase activity by level of 24.25(OH)2D3 in NB-4 cells; format: cell-based; design: endogenous in cells; conditions: paricalcitol 0.1 μM, arsenic trioxide 0.6 μM, 3 days
T1 sequence (Q07973 36-514): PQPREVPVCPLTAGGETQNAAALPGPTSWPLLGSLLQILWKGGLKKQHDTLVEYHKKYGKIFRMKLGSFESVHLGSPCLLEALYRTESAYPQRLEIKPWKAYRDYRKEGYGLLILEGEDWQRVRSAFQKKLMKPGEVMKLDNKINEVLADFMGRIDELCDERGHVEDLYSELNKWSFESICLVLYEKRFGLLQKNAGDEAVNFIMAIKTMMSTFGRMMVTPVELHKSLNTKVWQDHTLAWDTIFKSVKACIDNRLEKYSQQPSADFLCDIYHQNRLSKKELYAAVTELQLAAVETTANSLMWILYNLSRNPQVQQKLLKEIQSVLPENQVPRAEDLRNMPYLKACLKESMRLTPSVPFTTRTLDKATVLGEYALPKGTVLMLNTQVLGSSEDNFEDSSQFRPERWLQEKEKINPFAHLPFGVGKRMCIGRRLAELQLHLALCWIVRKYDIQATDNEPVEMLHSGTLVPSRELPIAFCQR
Procedure: (§1) HL-60 (A) and NB-4 (B) myeloid leukemia cell lines were treated with paricalcitol (0.01 μM for HL-60, 0.1 μM for NB-4) and/or arsenic trioxide (0.8 μM for HL-60, 0.6 μM for NB-4) for 3 days. Control cells were treated with vehicle alone. The levels of 24.25(OH)2D3 were measured by HPLC analysis.
(§2) The possibility that the arsenic trioxide inactivates the mitchondrial enzyme, 24-hydroxylase leading to an activation of the response of the cells to vitamin D was tested. The activity of 24-hydroxylase was examined by measuring its metabolite, 24.25(OH)2D3 by TLC analysis in leukemia cells. HL-60 and NB-4 myeloid leukemia cell lines were treated with paricalcitol (0.01 μM for HL-60, 0.1 μM for NB-4) and/or arsenic trioxide (0.8 μM for HL-60, 0.6 μM for NB-4) for 3 days. Control cells were treated with vehicle alone. Then the levels of 24.25(OH)2D3 were measured by TLC analysis. Paricalcitol alone increased the levels of 24.25(OH)2D3 in HL-60 and NB-4, while arsenic trioxide alone decreased its level compared to control cells (FIG. 11). […] The decrease of the levels of 24-hydroxylase by arsenic trioxide may explain the enhanced activity of paricalcitol by arsenic trioxide in leukemia cells.

24-hydroxylase [10] = molecular target: T1, 24-hydroxylase; assay: 24-hydroxylase activity by level of 24.25(OH)2D3 in HL-60 cells; format: cell-based; design: endogenous in cells; host or cells: HL-60; conditions: paricalcitol 0.01 μM, arsenic trioxide 0.8 μM, 3 days
Procedure: as §1, §2

Molecule | cell surface CD14 expression (HL-60 cells [1]) | G0/G1 arrest / accumulation (NCI-H929 cells [2]) | sub-G1 population (NCI-H929 cells [2]) | apoptotic cells by TUNEL assay (NCI-H929 cells [3]) | antiproliferative effect by MTT assay [4] | antiproliferative effect by MTT assay [5] | CD14 expression (NB-4 cells [6]) | monocytic differentiation by NBT reduction (HL-60 cells [7]) | cells in sub-G1 population (NB-4 cells [8]) | CD14 expressing cells (wild type U937 cells) | levels of 24.25(OH)2D3 (24-hydroxylase [9]) | levels of 24.25(OH)2D3 (24-hydroxylase [10]) | cells induced to express CD14 (HL-60 cells [1]; 10^−7M, 96 hrs) | increase of accumulation in G1/G0 phase (NCI-H929 cells [2]; 10^−7M, 72 hrs) | increase in apoptotic sub-G1 population (NCI-H929 cells [2]; 10^−7M, 72 hrs, diluant control 4% sub-G1) | apoptotic cells (TUNEL) (NCI-H929 cells [3]; 10^−7M, 96 hrs, diluant control 4%)
arsenic trioxide | did not | induced G0/G1 arrest | increased | increased | suppressed the cell growth in a dose-dependent manner | suppressed the cell growth in a dose-dependent manner | did not induced CD14 expression | little effect on differentiation | 33% | did not induce CD14 expression | decreased | decreased |  |  |  | 
C[C@H](/C=C/[C@H](C)C(C)(C)O)[C@H]1CC[C@H]2/C(=C/C=C3C[C@@H](O)C[C@H](O)C3)CCC[C@]12C [paricalcitol, 19-nor-1,25, (OH)2D3] | increased cell surface CD14 | induced G0/G1 arrest | increased | increased | suppressed the cell growth in a dose-dependent manner; also recorded: sensitive | suppressed the cell growth in a dose-dependent manner; also recorded: sensitive | did not induced CD14 expression | increased | 5% | increased CD14 expressing monoicytic cells | increased | increased | 65% | 7% | 21% | 31%
